# Measured values from patent US20240199572A1, “COMPOUNDS, COMPOSITIONS, AND METHODS FOR TREATING TYPE 2 DIABETES AND DEMENTIA” (THE BOARD OF TRUSTEES OF THE UNIVERSITY OF ILLINOIS, priority 2021, published 2024).
# Marks after values point to notes of the source that are not given here.
# System: C57Bl/6 male mice on a high fat diet (HFD)
# Assay: High-fat diet (HFD) mice treated with CL2-57
# Type: in vivo, mouse
# Experimental: High-Fat Diet and Drug Treatment. C57Bl/6 male mice (Jackson Laboratories) were placed on a high fat diet (HFD) (60% kcal from fat, Envigo) at 5 weeks. At 10 weeks, mice were acclimated to hydrogel replacement of drinking water (Clear H2O) for 3 days. Then, for six weeks while HFD continued, mice received 10 mg/kg CL2-57 oral gavage Mon/Wed/Fri (vehicle: 9.5% PEG-200, 5% DMSO, 0.1% polysorbate 80 in water) plus 10 mg/kg/day CL2-57 in continuous hydrogel, or vehicle control. Mice were weighed weekly. For fast-refed studies, mice fasted for 16 hours, then refed for 4 hours. Blood glucose was measured with handheld glucometer. Sample size, chosen based on previous experience with glucose tolerance test, was ten mice per treatment. Mice were assigned to treatment groups by cage randomization upon arrival from Jackson Laboratories. Mice were assigned a unique ear tag number to enable blinded tissue analysis and data collection. Treatment and in vivo experimentation were not blinded. No animals were excluded from analysis, and no control for confounders such as cage location or treatment order was performed.
# Plasma/Liver Triglycerides. Blood was collected in EDTA-coated tubes (Becton Dickinson) and centrifuged (3500 rpm, 15 minutes) to separate plasma. Livers were flash frozen in liquid nitrogen, then stored at −80° C. until homogenization in isopropanol. Triglyceride levels were measured using reagents from Wako Diagnostics per manufacturer's protocol.
# Glucose Tolerance Test (GTT). After 16-hour fast, animals were administered 1.5 g/kg body weight (bwt) glucose by intraperitoneal (i.p.) injection. Glucose in tail vein blood was measured at 0, 10, 20, 30, 45, 60, and 120 minutes using a ONETOUCH® […]® glucometer (LifeScan, Inc). Additional blood was collected at multiple points between 0-30 minutes in heparinized capillary tubes and centrifuged, with plasma insulin levels determined by ELISA (ALPCO).
# Insulin Sensitivity Studies. Mice were injected with 1 U/kg bwt HUMALOG® insulin or vehicle (n=3 of each per treatment group) 15 minutes before sacrifice. Liver, subcutaneous fat, and gastrocnemius were collected and homogenized in lysis buffer (50 mM Tris-HCl (pH 7.4), 100 mM NaCl, 1 mM EDTA, 1 mM EGTA, 1% Triton™ X-100, with protease/phosphatase inhibitor (Complete, Roche)). Protein concentration was determined using Bradford reagent (Bio-Rad). Denatured protein (30 μg) was separated by SDS-PAGE (Mini-PROTEAN® TGX™ Gels 10%, Bio-Rad) and transferred to 0.45 μm nitrocellulose membranes. Membranes were blocked with 5% skim milk in TBST (1×TBS+0.1% polysorbate 20) for 1 hour, incubated with primary antibodies overnight at 4° C., washed with TBST, and incubated with horseradish peroxidase (HRP)-linked secondary antibodies for 1 hour. After TBST wash, Clarity™ Western ECL Substrate (Bio-Rad) was added. Blots were imaged and analyzed using a ChemiDoc™ MP and Image Lab Ver 6.0 (Bio-Rad). Protein levels were normalized to GAPDH (muscle) or β-actin (liver, adipose) for quantification. Primary antibodies: Cell Signaling Technology 4060 (pS473Akt, RRID:AB_2315049), 13038 (pT308Akt, RRID:AB_2629447), 4691 (pan-Akt, RRID:AB_915783), 5174 (GAPDH, RRID:AB 10622025) and Sigma A2228 (3-actin, RRID:AB_476697).
# qRT-PCR. For cell samples, treated cells were lysed with RLT plus lysis buffer (Qiagen). RNA was isolated with Qiagen RNEASY® Plus columns per manufacturer instructions, then reverse-transcribed to cDNA using […]® III Reverse Transcriptase (200 U/μL, Invitrogen) per supplier protocol. qPCR experiments were either performed with TAQMAN® gene expression master mix (Invitrogen) on a StepOne™ qPCR instrument or with […]® SYBR® Green SuperMix (Quanta Biosciences) on CFX Connect™ Real-Time PCR Detection System (BioRad), with fold-change quantified by ΔΔCt. […]
# [1] = HFD mice, compared to vehicle control
# [2] = plasma, fold change with CL2-57 vs. vehicle in HFD mice
smiles,measurement,setting,value
"CCOC(=O)c1cccc(NC(=O)c2sc(Cl)cc2S(=O)(=O)N(C)c2ccc(OCC)c(OCC)c2)c1 [CL2-57, ethyl 3-(5-chloro-3-(N-(3,4-diethoxyphenyl)-N-methylsulfamoyl)thiophene-2-carboxamido) benzoate]",Attenuation of HFD increases of plasma proinflammatory lipid mediators (lysophospholipids),HFD mice,20-60%
same,Brown adipose or liver mass,HFD mice,no change
same,Fall of liver mRNA encoding PPARα,HFD mice,75%
same,Gluconeogenic metabolites,HFD mice,reduced
same,HFD increase of NO precursors arginine and guanidinosuccinate,HFD mice,reversed
same,HFD-increased liver oxysterol metabolites 7-hydroxycholesterol and 4-cholesten-3-one,HFD mice,reversed
same,Insulin secretion during the first 20 minutes of the GTT,HFD mice,negligible change
same,Liver Abcg1 expression,HFD mice,unchanged
same,Liver Abcg5 expression,HFD mice,significantly reduced
same,Liver Cyp7-a1 mRNA,HFD mice,diminishing trend
same,Liver Lpcat3 expression,HFD mice,significantly reduced
same,Liver Scd1 expression,HFD mice,significantly reduced
same,Liver Srebf1 mRNA,HFD mice,small increase
same,Liver cholesterol (reduced in HFD mice),HFD mice,normalized to baseline
same,Liver free fatty acid (FFA) concentrations reduced by,HFD mice,40-90%
same,Plasma FFAs decreased,HFD mice,5-20%
same,Plasma levels of cholesterol and oxysterol metabolites,HFD mice,unaffected
same,Tissue mass composition by TD-NMR,HFD mice,shifted tissue mass from fat to lean
same,Circulating arachidonic acid (AA) increase over diet controls,"HFD mice treated with CL2-57, vehicle 120%",37%
same,Blood glucose concentrations following single i.p. glucose injection,"HFD mice, GTT, vs vehicle",lower
same,"Glucose tolerance test, total area under the curve reduced by","HFD mice, after five weeks, 2-hour test",20%
same,Decrease in plasma TGs,[1],25%
same,Decrease of liver G6PC expression,[1],73%
same,Decrease of liver Pck1 expression,[1],70%
same,"HFD increases of the four gluconeogenic precursors, in particular glutamine and glycerol",[1],attenuated
same,Liver triglycerides (TGs) reduced by,[1],35%
same,Fasting/refed glucose and insulin levels,"HFD mice, initially",Little change
same,Adipose Akt phosphorylation,"HFD mice, insulin challenge",No treatment effect
same,Liver Akt phosphorylation at Ser473 with insulin,"HFD mice, insulin challenge",did not change
same,Liver Akt phosphorylation at Thr308 with insulin,"HFD mice, insulin challenge",increased
same,Skeletal muscle insulin sensitivity versus vehicle,"HFD mice, insulin challenge",dramatically increased
same,"Mature, nuclear form of SREBP1c protein","HFD mice, liver",unchanged
same,"Uncleaved, endoplasmic reticulum form of SREBP1c protein","HFD mice, liver",corresponding increase
same,"mRNA levels of proinflammatory enzymes, cytokines and chemokines (COX2, NOS2, TNFα, IL-6, CCL2, CXCL10)","HFD mice, liver and adipose",substantially lowered
same,Liver ABCA1 protein,"HFD mice, liver homogenates",increased
same,Liver Abca1 expression,"HFD mice, liver homogenates",increased
same,Lean tissue mass,"HFD mice, on average",gained
same,Weight gain,"HFD mice, over six weeks, vehicle 17%",8 % of baseline
same,"White adipose tissue mass reduced by, proportional to body weight","HFD mice, visceral (renal) and superficial (inguinal) fat pads",> 20%
same,Liver monoacylglycerols (MAGs) decreased,compared to HFD alone,83-97%
same,"Creatinine, urea, and bilirubin",markers of global inflammation and/or organ toxicity,unaffected
same,"1-Arachidonoyl-GPA (20:4), HED Drug/ Chow Veh",[2],0.65^†
same,"1-Arachidonoyl-GPC (20:4n6), HED Drug/ Chow Veh",[2],0.73^††
same,"1-Arachidonoyl-GPE (20:4n6), HED Drug/ Chow Veh",[2],0.73^††
same,"1-Arachidonoyl-GPI (20:4), HED Drug/ Chow Veh",[2],0.75^†
same,"1-Lignoceroyl-GPC (24:0), HED Drug/ Chow Veh",[2],0.99
same,"1-Linolenoyl-GPC (18:3), HED Drug/ Chow Veh",[2],0.85
same,"1-Linoleoyl-GPA (18:2), HED Drug/ Chow Veh",[2],0.57^††
same,"1-Linoleoyl-GPC (18:2), HED Drug/ Chow Veh",[2],0.81^†
same,"1-Linoleoyl-GPE (18:2), HED Drug/ Chow Veh",[2],0.81
same,"1-Linoleoyl-GPG (18:2), HED Drug/ Chow Veh",[2],0.75^†
same,"1-Linoleoyl-GPI (18:2), HED Drug/ Chow Veh",[2],0.72
same,"1-Linoleoyl-GPS (18:2), HED Drug/ Chow Veh",[2],0.39^††
same,"1-Oleoy1-GPI (18:1), HED Drug/ Chow Veh",[2],0.58^†
same,"1-Oleoyl-GPC (18:1), HED Drug/ Chow Veh",[2],0.84
same,"1-Oleoyl-GPE (18:1), HED Drug/ Chow Veh",[2],0.79
same,"1-Oleoyl-GPS (18:1), HED Drug/ Chow Veh",[2],0.62^†
same,"1-Palmitoleoyl-GPC (16:1), HED Drug/ Chow Veh",[2],0.81
same,"1-Palmitoyl-GPA (16:0), HED Drug/ Chow Veh",[2],0.64^††
same,"1-Palmitoyl-GPC (16:0), HED Drug/ Chow Veh",[2],0.83^†
same,"1-Palmitoyl-GPE (16:0), HED Drug/ Chow Veh",[2],0.95
same,"1-Palmitoyl-GPI (16:0), HED Drug/ Chow Veh",[2],0.56^††
same,"1-Palmitoyl-GPS (16:0), HED Drug/ Chow Veh",[2],0.77
same,"1-Stearoyl-GPC (18:0), HED Drug/ Chow Veh",[2],0.94
same,"1-Stearoyl-GPE (18:0), HED Drug/ Chow Veh",[2],0.91
same,"1-Stearoyl-GPI (18:0), HED Drug/ Chow Veh",[2],0.82
same,"2-Palmitoleoyl-GPC (16:1), HED Drug/ Chow Veh",[2],1.08
same,"2-Palmitoyl-GPC (16:0), HED Drug/ Chow Veh",[2],0.81
same,"2-Stearoyl-GPE (18:0), HED Drug/ Chow Veh",[2],0.74^††
same,"Docosahexaenoate (DPA; 22:6n3), HED Drug/ Chow Veh",[2],0.76
same,"Docosapentaenoate (n3 DPA; 22:5n3), HED Drug/ Chow Veh",[2],0.60^†
same,"Docosapentaenoate (n6 DPA; 22:5n6), HED Drug/ Chow Veh",[2],0.92
same,"Eicosapentaenoate (EPA; 20:5n3), HED Drug/ Chow Veh",[2],0.60^†
same,"Sphingadienine, HED Drug/ Chow Veh",[2],0.55^††
same,"Sphinganine, HED Drug/ Chow Veh",[2],0.67^††
same,"Sphinganine-1-phosphate, HED Drug/ Chow Veh",[2],0.73
same,"Sphingosine, HED Drug/ Chow Veh",[2],0.73
same,"Sphingosine-1-phosphate, HED Drug/ Chow Veh",[2],0.93
